Data reported in US20230382920A1, “SHMT Inhibitors” (The Trustees of Princeton University, priority 2020, published 2023).
Where a name gives a salt, the structure may show the parent alone.

How the values were obtained:
[1] = Mouse liver microsome assay (metabolic stability); type: in vitro ADME; details: mouse liver microsomes; for half-life at 2 µM: in vitro half-life; for microsomal CLint at 2 µM: in vitro intrinsic clearance, read-out: Relative Clint
Description: Example 6. Mouse Liver Microsome Assay
Metabolic stability of several compounds in mouse liver microsomes was tested. Briefly, a master solution was prepared according to Table 31.
Two separate experiments were performed: an experiment with cofactors and an experiment without cofactors. In the experiment with cofactors 40 μL of 10 mM NADPH and 40 μL of 20 mM UDPGA were added to the incubations. The final concentrations of microsomes, NADPH and UDPGA were 0.5 mg/mL, 1 mM and 2 mM, respectively. In the experiment without cofactors 10 μL of 20 mg/mL liver microsomes and 80 μL of ultra-pure H2O were added to the incubations. The final concentration of microsomes was 0.5 mg/mL. The mixture was pre-warmed at 37° C. for 5 minutes.
The reaction was started with the addition of 4 μL of 200 μM control compound or test compound solutions. Verapamil was used as positive control in this study. The final concentration of test compound was 2 μM and the final concentration of control compound was 1 μM. The incubation solution was incubated in water bath at 37° C.
Aliquots of 50 μL were taken from the reaction solution at 0.5, 5, 15, 30, 45 and 60 minutes. The reaction was stopped by the addition of five volumes of cold acetonitrile with IS (100 nM alprazolam, 200 nM caffeine and 100 nM tolbutamide). Samples were centrifuged at 3,220 g for 40 minutes. Aliquot of 100 μL of the supernatant was mixed with 100 μL of ultra-pure H2O and then subject to LC-MS/MS analysis.
All calculations were carried out using Microsoft Excel. Peak areas were determined from extracted ion chromatograms. The slope value, k, was determined by linear regression of the natural logarithm of the remaining percentage of the parent drug versus incubation time curve. The in vitro half-life (in vitro t½) was determined from the slope value:
Conversion of the in vitro t1/2(min) into the in vitro intrinsic clearance (in vitro CLint, in μL/min/mg protein) was done using the following equation (mean of duplicate determinations): […]

HCT116 [2] = assay: HCT116 formate rescue assay (with sodium formate 1 mM); type: cell-based; details: Homo sapiens, HCT-116, 96 h, HCT116 growth
Description: (§1) Example 5. HCT116 Growth Inhibition and Formate Rescue Assays
(§2) 3,000 Cells were plated in each well of a 96-well plate with 80 μL of DMEM media supplemented with 10% dFBS, and incubated for 24 hours. Drugs with or without sodium formate (1 mM) were then added to each well to a final volume of 100 μL. Cell growth was measured as fluorescence intensity by resazurin after four days. In short, resazurin was added to each well to a final concentration of 10 μg·mL^−1. After incubation for one hour, fluorescence was measured by a Synergy HT plate reader (BioTek Instruments).

HCT116 [3] = assay: HCT116 growth inhibition assay; type: cell-based; details: without formate
Description: as §1, §2

half-life at 2 µM [1] [min]	microsomal CLint at 2 µM [1] [µL/min/mg]	IC50 (HCT116 [2]) [µM]	IC50 (HCT116 [3])	SMILES
10 to 20	70 to 100	> 5	A″	Cc1n[nH]c2c1C(c1cc(C#CC3CN(C(=O)OC(C)(C)C)C3)cc(CO)c1)(C(C)C)C(C#N)=C(N)O2 (stereo not drawn) [KDG-0271, tert-butyl 3-[2-(3-[6-amino-5-cyano-4-isopropyl-3-methyl-1H-pyrano[2,3-c]pyrazol-4-yl]-5-(hydroxymethyl)phenyl)ethynyl]azetidine-1-carboxylate]
≥ 20	≤ 70	< 0.1	B″	Cc1n[nH]c2c1C(c1cc(C#C[C@H]3CC[C@H](NC(=O)OC(C)(C)C)CC3)cc(CO)c1)(C(C)C)C(C#N)=C(N)O2 (stereo partly drawn) [KDG-0320, tert-butyl N-[(1r,4r)-4-[2-(3-[6-amino-5-cyano-4-isopropyl-3-methyl-1H-pyrano[2,3-c]pyrazol-4-yl]-5-(hydroxymethyl)phenyl)ethynyl]cyclohexyl]carbamate hydrochloride]
≥ 20	≤ 70	> 5	B″	Cc1n[nH]c2c1C(c1cc(C#C[C@H]3C[C@@H](NC(=O)OC(C)(C)C)C3)cc(CO)c1)(C(C)C)C(C#N)=C(N)O2 (stereo partly drawn) [KDG-0388, tert-butyl N-[(1s,3s)-3-[2-(3-[6-amino-5-cyano-4-isopropyl-3-methyl-1H-pyrano[2,3-c]pyrazol-4-yl]-5-(hydroxymethyl)phenyl)ethynyl]cyclobutyl]carbamate]
